Experiments:
[1] = target: Death-associated protein kinase 2 (Homo sapiens) (UniProt Q9UIK4); details: Compound concentration 1.0 uM
[2] = target: T1, Serine/threonine-protein kinase D1 (Homo sapiens) (UniProt Q15139); details: Compound concentration 1.0 uM
T1 sequence (whole entry): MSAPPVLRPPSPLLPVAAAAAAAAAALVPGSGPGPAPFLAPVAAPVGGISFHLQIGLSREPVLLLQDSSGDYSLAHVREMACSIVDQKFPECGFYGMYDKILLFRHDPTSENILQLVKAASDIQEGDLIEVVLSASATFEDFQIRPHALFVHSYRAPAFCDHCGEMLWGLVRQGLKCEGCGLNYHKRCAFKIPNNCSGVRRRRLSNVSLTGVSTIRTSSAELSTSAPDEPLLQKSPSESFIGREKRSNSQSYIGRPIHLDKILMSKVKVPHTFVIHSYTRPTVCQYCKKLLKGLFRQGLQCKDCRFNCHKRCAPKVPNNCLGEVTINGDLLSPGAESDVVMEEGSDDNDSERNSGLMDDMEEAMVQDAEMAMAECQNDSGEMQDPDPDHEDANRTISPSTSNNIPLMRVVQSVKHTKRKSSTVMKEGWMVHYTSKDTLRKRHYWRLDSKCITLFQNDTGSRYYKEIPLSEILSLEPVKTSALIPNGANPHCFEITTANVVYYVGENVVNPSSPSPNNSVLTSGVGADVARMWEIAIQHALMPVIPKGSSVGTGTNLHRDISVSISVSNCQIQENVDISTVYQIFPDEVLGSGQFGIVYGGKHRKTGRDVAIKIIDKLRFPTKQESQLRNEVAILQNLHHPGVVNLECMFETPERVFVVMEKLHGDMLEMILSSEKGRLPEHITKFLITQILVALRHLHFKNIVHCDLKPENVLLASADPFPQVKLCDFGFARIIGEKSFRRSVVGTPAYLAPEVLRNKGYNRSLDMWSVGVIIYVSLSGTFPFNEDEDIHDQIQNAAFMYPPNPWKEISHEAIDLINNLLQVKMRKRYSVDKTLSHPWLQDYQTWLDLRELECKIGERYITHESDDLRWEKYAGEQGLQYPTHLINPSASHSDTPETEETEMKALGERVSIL

[3] = target: Phosphatidylinositol 5-phosphate 4-kinase type-2 alpha (Homo sapiens) (UniProt P48426); details: Compound concentration 1.0 uM
Phosphatidylinositol 5-phosphate 4-kinase type-2 alpha (Homo sapiens), sequence (P48426 whole entry): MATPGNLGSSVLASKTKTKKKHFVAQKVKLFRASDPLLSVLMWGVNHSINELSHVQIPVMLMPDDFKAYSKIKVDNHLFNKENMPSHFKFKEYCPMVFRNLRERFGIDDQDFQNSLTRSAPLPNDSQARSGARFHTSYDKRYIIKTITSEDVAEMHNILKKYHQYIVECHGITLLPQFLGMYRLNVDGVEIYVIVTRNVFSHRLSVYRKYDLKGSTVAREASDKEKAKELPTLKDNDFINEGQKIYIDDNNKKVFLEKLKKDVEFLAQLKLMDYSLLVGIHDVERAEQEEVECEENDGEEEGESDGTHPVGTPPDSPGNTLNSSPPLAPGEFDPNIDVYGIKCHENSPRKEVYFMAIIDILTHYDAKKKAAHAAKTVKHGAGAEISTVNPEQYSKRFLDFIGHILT

[4] = target: Platelet-derived growth factor receptor alpha (Homo sapiens) (UniProt P16234); details: Compound concentration 1.0 uM
Platelet-derived growth factor receptor alpha (Homo sapiens), sequence (P16234 whole entry): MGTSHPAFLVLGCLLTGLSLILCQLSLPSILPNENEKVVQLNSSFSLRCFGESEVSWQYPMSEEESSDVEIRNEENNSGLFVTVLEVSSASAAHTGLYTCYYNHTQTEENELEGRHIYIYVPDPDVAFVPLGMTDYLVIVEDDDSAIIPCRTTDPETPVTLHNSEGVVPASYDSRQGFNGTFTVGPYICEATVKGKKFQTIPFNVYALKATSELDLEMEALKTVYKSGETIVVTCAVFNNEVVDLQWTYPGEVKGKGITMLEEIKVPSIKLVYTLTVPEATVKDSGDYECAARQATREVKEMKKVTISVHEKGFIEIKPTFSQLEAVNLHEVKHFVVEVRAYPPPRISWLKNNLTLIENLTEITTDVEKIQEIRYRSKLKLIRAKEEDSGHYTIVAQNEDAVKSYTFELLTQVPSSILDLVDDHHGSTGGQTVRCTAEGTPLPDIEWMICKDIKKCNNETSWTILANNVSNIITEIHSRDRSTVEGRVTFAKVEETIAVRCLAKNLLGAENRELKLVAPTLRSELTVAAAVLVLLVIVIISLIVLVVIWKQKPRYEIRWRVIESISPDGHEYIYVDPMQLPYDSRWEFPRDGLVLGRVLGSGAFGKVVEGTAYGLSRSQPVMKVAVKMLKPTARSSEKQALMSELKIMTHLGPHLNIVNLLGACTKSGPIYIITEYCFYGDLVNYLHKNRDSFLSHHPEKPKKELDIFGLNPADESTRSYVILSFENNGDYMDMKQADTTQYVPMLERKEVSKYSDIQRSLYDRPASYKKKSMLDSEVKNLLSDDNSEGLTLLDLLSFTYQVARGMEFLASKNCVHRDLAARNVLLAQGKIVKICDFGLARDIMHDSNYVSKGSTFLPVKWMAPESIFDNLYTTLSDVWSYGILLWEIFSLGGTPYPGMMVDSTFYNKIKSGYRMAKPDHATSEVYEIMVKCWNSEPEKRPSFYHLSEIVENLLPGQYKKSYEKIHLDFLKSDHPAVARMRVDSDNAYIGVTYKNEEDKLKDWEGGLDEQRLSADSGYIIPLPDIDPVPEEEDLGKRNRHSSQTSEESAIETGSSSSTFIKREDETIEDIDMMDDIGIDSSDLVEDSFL

[5] = target: 5-hydroxytryptamine receptor 2C (Homo sapiens) (UniProt P28335); details: Compound concentration 10.0 uM
5-hydroxytryptamine receptor 2C (Homo sapiens), sequence (P28335 whole entry): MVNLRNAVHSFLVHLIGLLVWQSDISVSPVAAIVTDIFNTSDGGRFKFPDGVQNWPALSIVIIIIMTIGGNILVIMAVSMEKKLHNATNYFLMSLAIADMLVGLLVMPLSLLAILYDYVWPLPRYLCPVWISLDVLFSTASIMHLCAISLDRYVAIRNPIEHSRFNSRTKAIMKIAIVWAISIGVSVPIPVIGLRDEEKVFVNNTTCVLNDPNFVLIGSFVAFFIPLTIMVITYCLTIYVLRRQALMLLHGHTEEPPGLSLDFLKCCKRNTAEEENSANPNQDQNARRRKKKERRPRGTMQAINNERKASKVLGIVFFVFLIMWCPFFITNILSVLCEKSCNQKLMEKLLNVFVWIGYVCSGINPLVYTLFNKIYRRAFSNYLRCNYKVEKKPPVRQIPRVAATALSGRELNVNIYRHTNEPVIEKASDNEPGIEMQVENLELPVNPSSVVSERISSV

[6] = target: T2, Calcium/calmodulin-dependent protein kinase type IV (Homo sapiens) (UniProt Q16566); details: Compound concentration 1.0 uM
T2 sequence (whole entry): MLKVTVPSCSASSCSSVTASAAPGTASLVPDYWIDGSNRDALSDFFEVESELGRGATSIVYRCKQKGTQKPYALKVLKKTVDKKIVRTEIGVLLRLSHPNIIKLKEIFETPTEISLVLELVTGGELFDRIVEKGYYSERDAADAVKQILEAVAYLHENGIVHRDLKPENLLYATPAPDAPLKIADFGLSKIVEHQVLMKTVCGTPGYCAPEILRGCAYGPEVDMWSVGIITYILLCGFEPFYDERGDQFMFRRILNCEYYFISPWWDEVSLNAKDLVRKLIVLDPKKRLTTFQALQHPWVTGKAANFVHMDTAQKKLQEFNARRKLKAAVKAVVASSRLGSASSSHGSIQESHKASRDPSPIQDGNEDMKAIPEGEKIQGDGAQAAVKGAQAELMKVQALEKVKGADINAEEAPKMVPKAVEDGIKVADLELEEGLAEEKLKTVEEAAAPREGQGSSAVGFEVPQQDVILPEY

[7] = target: MAP kinase-activated protein kinase 3 (Homo sapiens) (UniProt Q16644); details: Compound concentration 1.0 uM
MAP kinase-activated protein kinase 3 (Homo sapiens), sequence (Q16644 whole entry, looked up): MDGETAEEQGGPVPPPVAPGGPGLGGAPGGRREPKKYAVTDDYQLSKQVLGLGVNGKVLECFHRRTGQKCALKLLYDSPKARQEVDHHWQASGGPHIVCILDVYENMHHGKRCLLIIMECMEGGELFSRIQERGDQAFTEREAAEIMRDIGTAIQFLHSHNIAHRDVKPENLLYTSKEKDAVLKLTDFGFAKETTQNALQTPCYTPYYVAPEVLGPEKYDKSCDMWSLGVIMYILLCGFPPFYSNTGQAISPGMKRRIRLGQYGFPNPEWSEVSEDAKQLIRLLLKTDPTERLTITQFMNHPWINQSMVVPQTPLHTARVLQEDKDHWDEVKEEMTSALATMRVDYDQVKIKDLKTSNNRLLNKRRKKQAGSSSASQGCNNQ

[8] = target: Ribosomal protein S6 kinase alpha-6 (Homo sapiens) (UniProt Q9UK32); details: Compound concentration 1.0 uM
Ribosomal protein S6 kinase alpha-6 (Homo sapiens), sequence (Q9UK32 whole entry): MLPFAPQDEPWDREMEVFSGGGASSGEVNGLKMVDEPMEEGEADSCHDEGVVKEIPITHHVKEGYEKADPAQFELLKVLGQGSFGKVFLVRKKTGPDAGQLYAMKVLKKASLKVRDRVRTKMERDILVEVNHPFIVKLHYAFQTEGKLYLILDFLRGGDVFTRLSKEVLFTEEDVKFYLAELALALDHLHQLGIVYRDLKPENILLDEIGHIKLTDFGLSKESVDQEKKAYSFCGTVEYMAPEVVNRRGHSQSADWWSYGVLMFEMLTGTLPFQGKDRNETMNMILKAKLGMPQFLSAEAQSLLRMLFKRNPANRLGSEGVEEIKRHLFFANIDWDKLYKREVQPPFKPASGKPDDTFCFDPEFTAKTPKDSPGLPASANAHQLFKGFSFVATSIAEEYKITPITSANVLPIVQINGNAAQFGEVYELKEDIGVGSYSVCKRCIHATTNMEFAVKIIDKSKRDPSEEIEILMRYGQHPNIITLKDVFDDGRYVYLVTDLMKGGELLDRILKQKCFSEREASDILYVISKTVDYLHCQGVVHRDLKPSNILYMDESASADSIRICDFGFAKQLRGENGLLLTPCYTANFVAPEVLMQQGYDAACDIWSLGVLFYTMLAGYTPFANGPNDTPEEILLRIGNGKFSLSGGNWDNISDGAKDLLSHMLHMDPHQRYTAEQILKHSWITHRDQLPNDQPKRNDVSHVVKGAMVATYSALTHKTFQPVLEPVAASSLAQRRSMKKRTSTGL

[9] = target: Serine/threonine-protein kinase WNK3 (Homo sapiens) (UniProt Q9BYP7); details: Compound concentration 1.0 uM
Serine/threonine-protein kinase WNK3 (Homo sapiens), sequence (Q9BYP7 whole entry): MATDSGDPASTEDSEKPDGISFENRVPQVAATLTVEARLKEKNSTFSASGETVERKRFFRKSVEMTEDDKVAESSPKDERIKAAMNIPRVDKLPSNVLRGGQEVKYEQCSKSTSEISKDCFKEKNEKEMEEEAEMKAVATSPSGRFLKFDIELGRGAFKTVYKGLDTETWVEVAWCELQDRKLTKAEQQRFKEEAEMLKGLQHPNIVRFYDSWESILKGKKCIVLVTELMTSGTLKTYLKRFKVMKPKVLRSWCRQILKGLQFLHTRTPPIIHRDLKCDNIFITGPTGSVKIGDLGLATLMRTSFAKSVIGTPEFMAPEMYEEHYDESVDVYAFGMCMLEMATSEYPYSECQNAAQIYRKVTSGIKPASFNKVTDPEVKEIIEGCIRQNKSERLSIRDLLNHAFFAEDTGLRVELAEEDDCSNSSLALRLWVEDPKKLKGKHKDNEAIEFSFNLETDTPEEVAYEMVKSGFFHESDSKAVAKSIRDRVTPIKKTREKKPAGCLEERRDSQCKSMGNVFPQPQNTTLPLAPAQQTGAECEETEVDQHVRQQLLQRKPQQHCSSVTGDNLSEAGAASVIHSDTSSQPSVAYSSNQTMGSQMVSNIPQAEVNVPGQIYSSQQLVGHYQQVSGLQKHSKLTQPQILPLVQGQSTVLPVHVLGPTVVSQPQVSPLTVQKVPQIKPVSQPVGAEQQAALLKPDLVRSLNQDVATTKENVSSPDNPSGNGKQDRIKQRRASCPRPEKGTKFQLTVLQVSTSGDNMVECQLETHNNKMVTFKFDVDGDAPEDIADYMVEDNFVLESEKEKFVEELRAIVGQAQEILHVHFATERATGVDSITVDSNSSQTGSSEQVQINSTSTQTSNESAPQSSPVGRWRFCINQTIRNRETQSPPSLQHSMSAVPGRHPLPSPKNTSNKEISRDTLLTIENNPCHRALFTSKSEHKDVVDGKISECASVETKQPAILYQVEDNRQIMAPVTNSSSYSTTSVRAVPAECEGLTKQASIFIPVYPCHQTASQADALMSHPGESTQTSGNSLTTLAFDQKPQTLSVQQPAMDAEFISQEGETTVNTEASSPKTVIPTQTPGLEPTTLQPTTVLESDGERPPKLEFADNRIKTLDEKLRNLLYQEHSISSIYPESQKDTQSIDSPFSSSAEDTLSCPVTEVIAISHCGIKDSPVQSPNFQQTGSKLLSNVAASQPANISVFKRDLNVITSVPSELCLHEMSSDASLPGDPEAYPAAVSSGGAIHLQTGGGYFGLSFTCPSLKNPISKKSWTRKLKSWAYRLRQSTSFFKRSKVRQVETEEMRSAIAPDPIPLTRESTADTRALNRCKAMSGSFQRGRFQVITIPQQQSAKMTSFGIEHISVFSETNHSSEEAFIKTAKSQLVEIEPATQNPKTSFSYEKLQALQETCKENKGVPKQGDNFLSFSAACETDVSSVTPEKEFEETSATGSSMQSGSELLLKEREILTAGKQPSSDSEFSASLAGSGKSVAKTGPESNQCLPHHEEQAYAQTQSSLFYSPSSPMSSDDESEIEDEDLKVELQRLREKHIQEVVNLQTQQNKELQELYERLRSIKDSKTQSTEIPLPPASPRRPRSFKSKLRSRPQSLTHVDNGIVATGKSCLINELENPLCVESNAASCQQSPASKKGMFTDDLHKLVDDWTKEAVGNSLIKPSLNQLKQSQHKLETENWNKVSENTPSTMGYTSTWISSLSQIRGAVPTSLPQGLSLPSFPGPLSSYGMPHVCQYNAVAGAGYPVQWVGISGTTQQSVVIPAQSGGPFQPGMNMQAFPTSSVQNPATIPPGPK

[10] = target: T3, Serine/threonine-protein kinase ULK2 (Homo sapiens) (UniProt Q8IYT8); details: Compound concentration 1.0 uM
T3 sequence (whole entry): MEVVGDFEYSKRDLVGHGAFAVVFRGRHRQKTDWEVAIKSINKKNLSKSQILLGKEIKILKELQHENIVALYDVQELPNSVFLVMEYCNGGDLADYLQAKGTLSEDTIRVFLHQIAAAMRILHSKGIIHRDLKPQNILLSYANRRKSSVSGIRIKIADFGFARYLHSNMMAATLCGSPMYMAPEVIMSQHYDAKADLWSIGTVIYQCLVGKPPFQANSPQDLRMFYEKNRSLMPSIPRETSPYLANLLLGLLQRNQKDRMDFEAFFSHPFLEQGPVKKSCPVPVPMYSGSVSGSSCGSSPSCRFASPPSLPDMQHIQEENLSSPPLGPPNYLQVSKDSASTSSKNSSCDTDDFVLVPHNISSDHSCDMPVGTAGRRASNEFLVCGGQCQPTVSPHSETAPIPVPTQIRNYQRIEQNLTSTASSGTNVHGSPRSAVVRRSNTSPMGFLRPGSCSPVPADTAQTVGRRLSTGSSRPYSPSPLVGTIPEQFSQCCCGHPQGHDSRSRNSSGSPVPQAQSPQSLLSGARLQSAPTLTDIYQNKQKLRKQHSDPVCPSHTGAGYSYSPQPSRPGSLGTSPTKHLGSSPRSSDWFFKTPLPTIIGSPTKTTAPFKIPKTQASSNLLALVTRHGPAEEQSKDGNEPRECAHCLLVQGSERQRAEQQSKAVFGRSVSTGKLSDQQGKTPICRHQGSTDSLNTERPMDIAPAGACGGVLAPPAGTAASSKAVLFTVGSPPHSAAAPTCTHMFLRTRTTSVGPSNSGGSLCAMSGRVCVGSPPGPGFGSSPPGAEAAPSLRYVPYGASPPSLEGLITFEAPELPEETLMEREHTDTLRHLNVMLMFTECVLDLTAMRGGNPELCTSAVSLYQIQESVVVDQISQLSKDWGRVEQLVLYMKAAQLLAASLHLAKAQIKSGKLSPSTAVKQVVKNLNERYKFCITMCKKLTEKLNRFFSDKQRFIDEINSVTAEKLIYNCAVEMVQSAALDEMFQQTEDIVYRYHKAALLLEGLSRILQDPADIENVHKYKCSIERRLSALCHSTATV

CN1CCN(c2cnc3c(C4CCN(C(=O)c5ccc(OC(F)(F)F)cc5N)CC4)ncnc3c2)CC1 [BAY-885]
inactive: % residual kinase activity [1] 99% | % residual kinase activity [2] 127% | % residual kinase activity [3] 95% | % residual kinase activity [4] 105% | inhibition [5] -4.77% | % residual kinase activity [6] 96% | % residual kinase activity [7] 113% | % residual kinase activity [8] 103% | % residual kinase activity [9] 107% | % residual kinase activity [10] 102%
